Experimental data: ChEMBL document CHEMBL1909046, “DrugMatrix in vitro pharmacology data”

Legend:
[1] = molecular target: Mitogen-activated protein kinase 3 (Homo sapiens, UniProt P27361); experiment: DRUGMATRIX: Protein Serine/Threonine Kinase, ERK1 enzyme inhibition (substrate: Myelin Basic Protein); design: species or system Escherichia coli; conditions: Not Active = under 50% inhibition at 10 µM
[2] = molecular target: T1, Caspase-1 (Homo sapiens, UniProt P29466); design: species or system Escherichia coli;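 note: Caspase-1 enzyme inhibition assay with a peptide substrate; in other assays of this panel Not Active means under 50% inhibition at 10 µM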
T1 sequence (P29466 whole entry): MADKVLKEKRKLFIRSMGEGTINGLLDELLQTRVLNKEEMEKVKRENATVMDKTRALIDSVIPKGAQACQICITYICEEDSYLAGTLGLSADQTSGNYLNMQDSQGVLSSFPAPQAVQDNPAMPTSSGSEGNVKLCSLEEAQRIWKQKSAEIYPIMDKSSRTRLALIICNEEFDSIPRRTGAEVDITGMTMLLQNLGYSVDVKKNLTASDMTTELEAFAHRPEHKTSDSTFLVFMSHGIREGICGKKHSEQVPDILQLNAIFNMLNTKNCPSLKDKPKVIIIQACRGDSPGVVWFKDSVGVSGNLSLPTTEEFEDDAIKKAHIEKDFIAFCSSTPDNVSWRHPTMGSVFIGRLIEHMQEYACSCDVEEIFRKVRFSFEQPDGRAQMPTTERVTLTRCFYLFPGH

[3] = molecular target: T2, Leukotriene C4 synthase (Cavia porcellus, UniProt A6XA80); type: tissue-based, Lung;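 note: enzyme inhibition assay of leukotriene C4 synthase, using LTA4 as the substrate; in other assays of this panel Not Active means under 50% inhibition at 10 µM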
T2 sequence (A6XA80 whole entry): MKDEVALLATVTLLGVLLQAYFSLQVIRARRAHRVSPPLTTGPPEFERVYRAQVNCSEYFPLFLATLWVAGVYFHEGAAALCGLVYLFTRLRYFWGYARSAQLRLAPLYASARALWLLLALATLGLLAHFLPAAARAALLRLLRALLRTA

[4] = DRUGMATRIX: Interleukin IL-1 radioligand binding (ligand: [125I] interleukin 1beta); type: cell membranes, Membrane; conditions: nih3t3; Not Active = under 50% inhibition at 10 µM
[5] = molecular target: T3, 5-hydroxytryptamine receptor 1A (Rattus norvegicus, UniProt P19327); type: cell membranes, CHO-K1, Membrane; conditions: cho-k1; note: in other assays of this panel Not Active means under 50% inhibition at 10 µM
T3 sequence (P19327 whole entry): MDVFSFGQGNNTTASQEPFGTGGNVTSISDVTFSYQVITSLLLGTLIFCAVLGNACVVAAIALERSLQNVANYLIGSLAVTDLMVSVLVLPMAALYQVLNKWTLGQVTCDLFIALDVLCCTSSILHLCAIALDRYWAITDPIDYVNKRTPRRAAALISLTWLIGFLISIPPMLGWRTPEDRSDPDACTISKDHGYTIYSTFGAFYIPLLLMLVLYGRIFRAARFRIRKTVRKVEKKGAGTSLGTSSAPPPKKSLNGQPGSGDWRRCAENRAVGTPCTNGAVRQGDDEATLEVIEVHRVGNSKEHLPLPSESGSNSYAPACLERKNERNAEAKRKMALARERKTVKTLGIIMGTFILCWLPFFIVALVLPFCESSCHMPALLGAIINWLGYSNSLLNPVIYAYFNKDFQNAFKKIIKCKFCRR

[6] = molecular target: Mitogen-activated protein kinase 1 (Homo sapiens, UniProt P28482); experiment: DRUGMATRIX: Protein Serine/Threonine Kinase, ERK2 enzyme inhibition (substrate: Myelin Basic Protein); design: species or system Escherichia coli; conditions: Not Active = under 50% inhibition at 10 µM
Mitogen-activated protein kinase 1, sequence (P28482 whole entry): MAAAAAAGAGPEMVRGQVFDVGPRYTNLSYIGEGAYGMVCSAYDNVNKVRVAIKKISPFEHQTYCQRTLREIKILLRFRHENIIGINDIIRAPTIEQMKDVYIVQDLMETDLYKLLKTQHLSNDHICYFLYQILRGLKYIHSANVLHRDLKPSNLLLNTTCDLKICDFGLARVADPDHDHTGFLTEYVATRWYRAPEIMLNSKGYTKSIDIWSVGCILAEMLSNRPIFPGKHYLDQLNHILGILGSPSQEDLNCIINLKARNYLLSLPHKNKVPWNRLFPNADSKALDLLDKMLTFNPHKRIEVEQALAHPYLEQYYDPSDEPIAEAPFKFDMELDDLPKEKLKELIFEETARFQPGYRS

[7] = molecular target: Epidermal growth factor receptor (Homo sapiens, UniProt P00533); experiment: DRUGMATRIX: Protein Tyrosine Kinase, EGF Receptor enzyme inhibition (substrate: Poly(Glu:Tyr)); type: cell-based, Insect cells; conditions: insect cells; Not Active = under 50% inhibition at 10 µM
Epidermal growth factor receptor, sequence (P00533 whole entry): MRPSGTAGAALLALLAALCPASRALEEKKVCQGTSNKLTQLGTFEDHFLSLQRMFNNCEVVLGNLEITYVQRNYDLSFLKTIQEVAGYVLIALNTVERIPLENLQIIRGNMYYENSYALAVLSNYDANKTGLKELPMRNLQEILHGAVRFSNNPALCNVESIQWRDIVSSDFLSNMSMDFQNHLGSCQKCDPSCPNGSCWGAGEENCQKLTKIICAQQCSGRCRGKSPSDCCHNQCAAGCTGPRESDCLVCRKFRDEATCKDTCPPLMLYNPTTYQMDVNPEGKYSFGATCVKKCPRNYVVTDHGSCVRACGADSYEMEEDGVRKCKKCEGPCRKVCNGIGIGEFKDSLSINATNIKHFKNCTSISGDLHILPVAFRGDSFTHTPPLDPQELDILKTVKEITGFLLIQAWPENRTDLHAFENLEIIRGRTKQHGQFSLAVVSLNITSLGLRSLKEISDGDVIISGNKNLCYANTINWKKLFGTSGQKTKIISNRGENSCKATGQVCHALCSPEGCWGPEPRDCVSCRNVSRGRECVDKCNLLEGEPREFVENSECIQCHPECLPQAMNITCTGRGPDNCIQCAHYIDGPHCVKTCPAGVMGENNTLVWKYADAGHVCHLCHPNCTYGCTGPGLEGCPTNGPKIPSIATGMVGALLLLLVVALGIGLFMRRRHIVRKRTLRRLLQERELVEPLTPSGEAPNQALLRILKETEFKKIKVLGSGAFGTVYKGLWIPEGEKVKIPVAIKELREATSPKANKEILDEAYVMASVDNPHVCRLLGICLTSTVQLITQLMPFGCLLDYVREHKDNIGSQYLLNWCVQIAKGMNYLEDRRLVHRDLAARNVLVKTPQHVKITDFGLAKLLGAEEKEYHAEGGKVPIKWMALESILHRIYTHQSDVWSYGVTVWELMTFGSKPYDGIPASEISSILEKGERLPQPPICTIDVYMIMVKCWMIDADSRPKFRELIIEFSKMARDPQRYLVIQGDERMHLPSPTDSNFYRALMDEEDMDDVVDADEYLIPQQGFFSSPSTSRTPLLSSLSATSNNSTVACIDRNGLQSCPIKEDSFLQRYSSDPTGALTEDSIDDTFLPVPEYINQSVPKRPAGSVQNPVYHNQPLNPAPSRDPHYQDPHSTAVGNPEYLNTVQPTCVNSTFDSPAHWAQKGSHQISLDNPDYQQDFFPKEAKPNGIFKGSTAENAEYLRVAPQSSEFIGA

Mitogen-activated protein kinase 3, sequence (P27361 whole entry): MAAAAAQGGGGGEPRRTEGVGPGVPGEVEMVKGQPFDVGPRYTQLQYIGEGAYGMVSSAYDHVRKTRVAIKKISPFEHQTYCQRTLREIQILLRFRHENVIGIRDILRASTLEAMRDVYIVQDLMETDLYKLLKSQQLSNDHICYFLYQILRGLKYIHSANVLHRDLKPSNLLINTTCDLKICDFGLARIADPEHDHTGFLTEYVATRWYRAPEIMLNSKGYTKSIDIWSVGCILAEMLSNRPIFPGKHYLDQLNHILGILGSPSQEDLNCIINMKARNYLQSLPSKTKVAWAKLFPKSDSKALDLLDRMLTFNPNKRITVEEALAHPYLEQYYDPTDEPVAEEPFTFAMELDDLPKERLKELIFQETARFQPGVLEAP

CC(C)CN(C[C@@H](O)[C@H](Cc1ccccc1)NC(=O)O[C@H]1CCOC1)S(=O)(=O)c1ccc(N)cc1
Not Active: IC50 [1] | IC50 [2] | IC50 [3] | IC50 [4] | Ki [4] | IC50 [5] | IC50 [6] | IC50 [7]

c1ccc(Nc2ccc(Nc3ccccc3)cc2)cc1
Not Active: IC50 [1] | IC50 [2] | IC50 [3] | IC50 [4] | Ki [4] | IC50 [5] | IC50 [6] | IC50 [7]

COc1cc2c3cc1Oc1cc(ccc1O)C[C@@H]1c4c(cc(OC)c(O)c4Oc4ccc(cc4)C[C@@H]3N(C)CC2)CC[N+]1(C)C.[Cl-]
Not Active: IC50 [1] | IC50 [2] | IC50 [3] | IC50 [4] | Ki [4] | IC50 [5] | IC50 [6] | IC50 [7]

NC(=O)N1c2ccccc2CCc2ccccc21
Not Active: IC50 [1] | IC50 [2] | IC50 [3] | IC50 [4] | Ki [4] | IC50 [5] | IC50 [6] | IC50 [7]

O=C1CC[C@@H](N2C(=O)c3ccccc3C2=O)C(=O)N1
Not Active: IC50 [1] | IC50 [2] | IC50 [3] | IC50 [4] | Ki [4] | IC50 [5] | IC50 [6] | IC50 [7]

Cc1onc(O)c1CC(N)C(=O)O (racemic) [(R,S)-AMPA]
Not Active: IC50 [1] | IC50 [2] | IC50 [3] | IC50 [4] | Ki [4] | IC50 [5] | IC50 [6] | IC50 [7]

Cc1ccc2cc3c(ccc4ccccc43)c3c2c1CC3 [3-METHYLCHOLANTHRENE]
Not Active: IC50 [1] | IC50 [2] | IC50 [3] | IC50 [4] | Ki [4] | IC50 [5] | IC50 [6] | IC50 [7]

CC[C@@]1(O)C[C@H](O[C@H]2C[C@H](N(C)C)[C@H](O[C@H]3C[C@H](O)[C@H](O[C@H]4CCC(=O)[C@H](C)O4)[C@H](C)O3)[C@H](C)O2)c2c(cc3c(c2O)C(=O)c2c(O)cccc2C3=O)[C@H]1C(=O)OC [ACLARUBICIN]
Not Active: IC50 [1] | IC50 [2] | IC50 [3] | IC50 [4] | Ki [4] | IC50 [5] | IC50 [6] | IC50 [7]

Nc1nc2c(ncn2COCCO)c(=O)[nH]1 [ACYCLOVIR]
Not Active: IC50 [1] | IC50 [2] | IC50 [3] | IC50 [4] | Ki [4] | IC50 [5] | IC50 [6] | IC50 [7]

Cc1c(C)c2c(c(C)c1O)CC[C@@](C)(CCC[C@H](C)CCC[C@H](C)CCCC(C)C)O2 [ALPHA-TOCOPHEROL]
Not Active: IC50 [1] | IC50 [2] | IC50 [3] | IC50 [4] | Ki [4] | IC50 [5] | IC50 [6] | IC50 [7]

CN(C)c1nc(N(C)C)nc(N(C)C)n1 [ALTRETAMINE]
Not Active: IC50 [1] | IC50 [2] | IC50 [3] | IC50 [4] | Ki [4] | IC50 [5] | IC50 [6] | IC50 [7]

Nc1c(Br)cc(Br)cc1CN[C@H]1CC[C@H](O)CC1 [AMBROXOL]
Not Active: IC50 [1] | IC50 [2] | IC50 [3] | IC50 [4] | Ki [4] | IC50 [5] | IC50 [6] | IC50 [7]

NCCCCCC(=O)O [AMINOCAPROIC ACID]
Not Active: IC50 [1] | IC50 [2] | IC50 [3] | IC50 [4] | Ki [4] | IC50 [5] | IC50 [6] | IC50 [7]

CCC1(c2ccc(N)cc2)CCC(=O)NC1=O (centres undefined) [AMINOGLUTETHIMIDE]
Not Active: IC50 [1] | IC50 [2] | IC50 [3] | IC50 [4] | Ki [4] | IC50 [5] | IC50 [6] | IC50 [7]

Cc1ccc(/N=C/N(C)/C=N/c2ccc(C)cc2C)c(C)c1 [AMITRAZ]
Not Active: IC50 [1] | IC50 [2] | IC50 [3] | IC50 [4] | Ki [4] | IC50 [5] | IC50 [6] | IC50 [7]

CCOC(=O)C1=C(COCCN)NC(C)=C(C(=O)OC)C1c1ccccc1Cl (centres undefined) [AMLODIPINE]
Not Active: IC50 [1] | IC50 [2] | IC50 [3] | IC50 [4] | Ki [4] | IC50 [5] | IC50 [6] | IC50 [7]

COc1ccc(C[C@H]2NC[C@H](O)[C@H]2OC(C)=O)cc1 [ANISOMYCIN]
Not Active: IC50 [1] | Ki [1] | IC50 [2] | Ki [2] | IC50 [3] | Ki [3] | IC50 [4] | Ki [4] | IC50 [5] | Ki [5] | IC50 [6] | Ki [6] | IC50 [7] | Ki [7]

Nc1ncn([C@@H]2O[C@H](CO)[C@@H](O)[C@H]2O)c(=O)n1 [AZACITIDINE]
Not Active: IC50 [1] | IC50 [2] | IC50 [3] | IC50 [4] | Ki [4] | IC50 [5] | IC50 [6] | IC50 [7]

CN(C)C(=O)Oc1cc(OC(=O)N(C)C)cc(C(O)CNC(C)(C)C)c1 (centres undefined) [BAMBUTEROL]
Not Active: IC50 [1] | IC50 [2] | IC50 [3] | IC50 [4] | Ki [4] | IC50 [5] | IC50 [6] | IC50 [7]

c1ccc2c(c1)c1cccc3ccc4cccc2c4c31 [BENZO[E]PYRENE]
Not Active: IC50 [1] | IC50 [2] | IC50 [3] | IC50 [4] | Ki [4] | IC50 [5] | IC50 [6] | IC50 [7]

CNCCc1ccccn1 [BETAHISTINE]
Not Active: IC50 [1] | IC50 [2] | IC50 [3] | IC50 [4] | Ki [4] | IC50 [5] | IC50 [6] | IC50 [7]

CC(C)C(Br)C(=O)NC(N)=O (centres undefined) [BROMISOVALUM]
Not Active: IC50 [1] | IC50 [2] | IC50 [3] | IC50 [4] | Ki [4] | IC50 [5] | IC50 [6] | IC50 [7]

CCCC1O[C@@H]2C[C@H]3[C@@H]4CCC5=CC(=O)C=C[C@]5(C)[C@H]4[C@@H](O)C[C@]3(C)[C@]2(C(=O)CO)O1 (some centres undefined) [BUDESONIDE]
Not Active: IC50 [1] | IC50 [2] | IC50 [3] | IC50 [4] | Ki [4] | IC50 [5] | IC50 [6] | IC50 [7]

CC(NC(C)(C)C)C(=O)c1cccc(Cl)c1 (centres undefined) [BUPROPION]
Not Active: IC50 [1] | IC50 [2] | IC50 [3] | IC50 [4] | Ki [4] | IC50 [5] | IC50 [6] | IC50 [7]

CN(Cc1ccc(C(C)(C)C)cc1)Cc1cccc2ccccc12 [BUTENAFINE]
Not Active: IC50 [1] | IC50 [2] | IC50 [3] | IC50 [4] | Ki [4] | IC50 [5] | IC50 [6] | IC50 [7]

C[C@H](CS)C(=O)N1CCC[C@H]1C(=O)O [CAPTOPRIL]
Not Active: IC50 [1] | IC50 [2] | IC50 [3] | IC50 [4] | Ki [4] | IC50 [5] | IC50 [6] | IC50 [7]

Cc1ccc(-c2cc(C(F)(F)F)nn2-c2ccc(S(N)(=O)=O)cc2)cc1 [CELECOXIB]
Not Active: IC50 [1] | IC50 [2] | IC50 [3] | IC50 [4] | Ki [4] | IC50 [5] | IC50 [6] | IC50 [7]

CCCN1C[C@H](CSC)C[C@@H]2c3cccc4[nH]cc(c34)C[C@H]21 [PERGOLIDE]
Not Active: IC50 [1] | IC50 [2] | IC50 [3] | IC50 [4] | Ki [4] | IC50 [6] | IC50 [7]
